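Step 1: Grow cells in 96-well plates. Step 2: Expose to compound for 48 hours at 5 concentrations. Step 3: Interpolate endpoints linearly; if unreached, use highest concentration. Abbreviation: GI50, concentration required for 50% inhibition of growth. Definition used: TGI = concentration required for complete inhibition of growth.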
Key:
Assay in all cases: inhibition of tumour cell growth, NCI panel, 48 h
[1] = test system: MALME-3M melanoma
[2] = test system: K-562 leukemia
[3] = test system: UACC-62 melanoma
[4] = test system: M14 melanoma
[5] = test system: SF-268 CNS
[6] = test system: CCRF-CEM leukemia
[7] = test system: OVCAR-8 ovarian
[8] = test system: SNB-75 CNS
[9] = test system: T-47D breast
[10] = test system: HL-60(TB) leukemia
[11] = test system: KM12 colon
[12] = test system: OVCAR-4 ovarian
[13] = test system: NCI/ADR-RES ovarian
[14] = test system: SR leukemia
[15] = test system: NCI-H23 lung
[16] = test system: ACHN renal
[17] = test system: OVCAR-3 ovarian
[18] = test system: HT29 colon
[19] = test system: NCI-H522 lung
[20] = test system: 786-0 renal
[21] = test system: HCC-2998 colon
[22] = test system: UO-31 renal
[23] = test system: UACC-257 melanoma
[24] = test system: A498 renal
[25] = test system: HCT-116 colon
[26] = test system: HOP-92 NSCLC
[27] = test system: SK-MEL-5 melanoma
[28] = test system: COLO 205 colon
[29] = test system: NCI-H226 lung
[30] = test system: SK-MEL-28 melanoma
[31] = test system: MDA-MB-231 breast
[32] = test system: PC-3 prostate
[33] = test system: SN12C renal
[34] = test system: IGROV1 ovarian
[35] = test system: RPMI-8226 leukemia
[36] = test system: DU-145 prostate
[37] = test system: SK-MEL-2 melanoma
[38] = test system: NCI-H460 lung
[39] = test system: LOX IMVI melanoma
[40] = test system: OVCAR-5 ovarian
[41] = test system: SF-295 CNS
[42] = test system: BT-549 breast
[43] = test system: MOLT-4 leukemia
[44] = test system: HS 578T breast
[45] = test system: HOP-62 NSCLC
[46] = test system: MDA-MB-435
[47] = test system: SW-620 colon
[48] = test system: RXF 393 renal
[49] = test system: TK-10 renal
[50] = test system: HCT-15 colon
[51] = test system: U251 CNS
[52] = test system: SNB-19 CNS
[53] = test system: MCF7 breast
[54] = test system: A549 NSCLC
[55] = test system: CAKI-1 renal

## COc1ccc(S(=O)(=O)Nc2cc(/C=C\c3cc(OC)c(OC)c(OC)c3)cc(OC)c2OC)cc1
[1]
  GI50: 12.6 µM
  TGI: 97.3 µM
[2]
  GI50: 27.2 nM
  TGI: 48.2 µM
[3]
  GI50: 46.1 nM
  TGI: 69.4 µM
[4]
  GI50: 30.1 nM
  TGI: > 100 µM
[5]
  GI50: 57.5 nM
  TGI: > 100 µM
[6]
  GI50: 32.9 nM
  TGI: > 100 µM
[7]
  GI50: 45.9 nM
  TGI: > 100 µM
[8]
  GI50: 26.5 nM
  TGI: > 100 µM
[9]
  GI50: 5.21 µM
  TGI: > 100 µM
[10]
  GI50: 23.4 nM
  TGI: 63.5 nM
[11]
  GI50: 39.7 nM
  TGI: > 100 µM
[12]
  GI50: 84.2 nM
  TGI: > 100 µM
[13]
  GI50: 35.3 nM
  TGI: 81.5 µM
[14]
  GI50: 35.2 nM
  TGI: 2370 nM
[15]
  GI50: 59.3 nM
  TGI: > 100 µM
[16]
  GI50: 57 nM
  TGI: 23.2 µM
[17]
  GI50: 34.5 nM
  TGI: 97.7 nM
[18]
  GI50: 33.1 nM
  TGI: 122 nM
[19]
  GI50: 19.7 nM
  TGI: 52 nM
[20]
  GI50: 57.9 nM
  TGI: 22.6 µM
[21]
  GI50: 39.1 nM
  TGI: > 100 µM
[22]
  GI50: 63.5 nM
  TGI: 85.3 µM
[23]
  GI50: 4.1 µM
  TGI: 98.9 µM
[24]
  GI50: 21.7 nM
  TGI: 92.4 nM
[25]
  GI50: 35 nM
  TGI: > 100 µM
[26]
  GI50: 1760 nM
  TGI: 82.3 µM
[27]
  GI50: 35.9 nM
  TGI: 168 nM
[28]
  GI50: 21.4 nM
  TGI: 45.9 nM
[29]
  GI50: 27.3 µM
  TGI: > 100 µM
[30]
  GI50: 76.5 nM
  TGI: > 100 µM
[31]
  GI50: 47.9 nM
  TGI: > 100 µM
[32]
  GI50: 38 nM
  TGI: > 100 µM
[33]
  GI50: 69.8 nM
  TGI: > 100 µM
[34]
  GI50: 57.7 nM
  TGI: > 100 µM
[35]
  GI50: 45.9 nM
  TGI: 13.2 µM
[36]
  GI50: 41.6 nM
  TGI: > 100 µM
[37]
  GI50: 37.4 nM
  TGI: 63.3 µM
[38]
  GI50: 36.7 nM
  TGI: 17 µM
[39]
  GI50: 50 nM
  TGI: > 100 µM
[40]
  GI50: 49.9 nM
  TGI: > 100 µM
[41]
  GI50: 31.1 nM
  TGI: > 100 µM
[42]
  GI50: 42.5 nM
  TGI: 79 µM
[43]
  GI50: 49.5 nM
  TGI: > 100 µM
[44]
  GI50: 45.2 nM
  TGI: > 100 µM
[45]
  GI50: 40.8 nM
  TGI: > 100 µM
[46]
  GI50: 21.1 nM
  TGI: 48.2 nM
[47]
  GI50: 43.9 nM
  TGI: > 100 µM
[48]
  GI50: 40.1 nM
  TGI: 72.4 µM
[49]
  GI50: 65 nM
  TGI: 78 µM
[50]
  GI50: 35.8 nM
  TGI: > 100 µM
[51]
  GI50: 35.7 nM
  TGI: > 100 µM
[52]
  GI50: 60.1 nM
  TGI: > 100 µM
[53]
  GI50: 36 nM
  TGI: > 100 µM
[54]
  GI50: 47.4 nM
  TGI: > 100 µM
[55]
  GI50: 53.1 nM
  TGI: 30.9 µM
